# Source: article doi:10.1101/2025.03.14.643404, “A Bivalent Molecular Glue Linking Lysine Acetyltransferases to Oncogene-induced Cell Death” (bioRxiv, 2025)
# Assays:
# PUMA/BBC3 = test: Global proteome profiling in SUDHL5, PUMA/BBC3 abundance; format: cell-based, human; details: SUDHL5, 10 nM, 24 hours
# Method: SUDHL5 cells (6M cells in 6 mL RPMI-1640 media supplemented with 10% FBS and 1x pen-strep) were treated with 0.1% DMSO, 10 nM TCIP3, 10 nM Neg1, 10 nM Neg2, or 250 nM dCBP1 (1000x stocks in DMSO for final 0.1% DMSO concentration) in 3 biologically independent replicates. The cells were washed twice with TBS (50 mM Tris, pH 8.5, and 150 mM NaCl) and then stored at −80 °C until use.
# Lysis was performed by first thermally denaturing the samples in residual wash buffer for 5 min at 95 °C. Fresh Lysis Buffer (8 M urea, 150 mM NaCl, and 100 mM HEPES, pH 8.0, in MS-grade water) was then added, and the lysates were homogenized using needle ultrasonication and then normalized to 30 μg of 2 mg/mL by diluting with Lysis Buffer via a Bradford protein concentration assay (Bio-Rad 5000006) in technical duplicates. […]
# Samples were then desalted using SOLAμ SPE HRP Peptide Desalting columns (Thermo 60209–001) with a Positive Pressure Manifold and all MS-grade reagents. […] The samples were then reconstituted in 0.1% FA in water and then analyzed by LC-MS/MS (see below).
# The reconstituted desalted peptides were then analyzed using a nanoElute 2 UHPLC (Bruker Daltonics, Bremen, Germany) coupled to a timsTOF HT (Bruker Daltonics, Bremen, Germany) via a CaptiveSpray nano-electrospray source. […]
# [1] = tested on: SUDHL5^TRE−3xFLAG-MYC cells; test: Viability of SUDHL5 TRE-3xFLAG-MYC cells, 72 h; format: cell-based; details: Homo sapiens
# Method: Thirty thousand cells were seeded in 100 μl of media per well of a 96-well plate and treated with drug for the indicated times and doses. A resazurin-based indicator of cell health (PrestoBlue; P50200, Thermo Fisher) was added for 1.5 h at 37°C, at which point the fluorescence ratio at 560/590 nm was recorded (Tecan Spark). The background fluorescence was subtracted, and the signal was normalized to DMSO-treated cells. IC50 measurements on cell lines were calculated using at least three biological replicates (separate cell passages). Fit of dose–response curves to data and statistical analysis was performed using GraphPad PRISM using the four-parameter log(inhibitor) vs response function.
# An N-terminal fusion of 3xFLAG followed by a GGSGS linker fused to the coding sequence of human c-MYC (NM_002467.6)) was subcloned into pCW57-MCS1–2A-MCS2 (a gift from Adam Karpf (Addgene plasmid 71782; http://n2t.net/addgene:71782; RRID:Addgene_71782)).
# This construct is the same used for BCL6 nanoBRET studies above. Lentivirus was produced from HEK293T cells via polyethylenimine transfection. Briefly, cells were transfected using 2nd-generation packaging plasmids and media replaced after 24 hours. […]
structure (smiles),measurement,setting,value
CNC(=O)COc1cc2cc(Nc3nc(N4CCC(C(=O)N5CCN(CCC(=O)N6CCC(n7nc(N8CCCc9cc(-c%10cnn(C)c%10)c(C(F)F)cc98)c8c7CCN(C(=O)NC)C8)CC6)CC5)CC4)ncc3Cl)cc(OC)c2n(C)c1=O [TCIP3],PUMA/BBC3 log2(TCIP3 / DMSO fold change),PUMA/BBC3,0.72
same,IC50,"[1]; SU-DHL-5, + dox (1 μg/mL doxycycline 24 h prior)",~7.5 nM
same,IC50,"[1]; SU-DHL-5, − dox",~2 nM
